Assay results published in patent US20260193264A1, “BENZOYPARAZINE PYRAZINES AND THEIR USES” (FOGHORN THERAPEUTICS INC., priority 2022, published 2026).

Experiments:
[1] = biological target: T1, HiBit-BRG1 fusion protein in stable HeLa cell line expressing HiBit-BRG1 and LgBit (Homo sapiens, UniProt P51532); experiment: HiBiT-BRG1 cell-based degradation assay (Nano-Glo HiBiT, 24 h); conditions: HeLa HiBit-BRG1/LgBit cells; for DC50: read-out: BRMG1 HiBit Degradation IC50; for Dmax: top dose 30 μM, read-out: BRG1 HiBit Degradation Maximum (%)
T1 construct: expressed in transfected cells
Protocol: Procedure: A stable HeLa cell line expressing HiBiT-BRM was generated. On day 0, 5000 cells were seeded in 40 μL of media into each well of 384-well cell culture plates. […] Subsequently plates were incubated for 24 h in a standard tissue culture incubator and equilibrated at room temperature for 15 minutes. Nano-Glo HiBiT Lytic Detection System (Promega N3050) reagent was freshly prepared and 20 ul was added to each well. Upon addition of this LgBit-containing reagent, the HiBiT and LgBiT proteins associate to form the luminescent NanoBiT luciferase. The plates were shaken for 10 minutes at room temperature and the bioluminescence read using an EnVision plate reader (PerkinElmer). For measurement of BRG1 degradation, a stable HeLa cell line expressing HiBit-BRG1 and LgBit was generated. The same protocol as above was then followed. The degradation % was calculated using the following formula: % degradation=100%−100%×(Lumsample−LumLC)/(LumHC−LumLC). DMSO treated cells are employed as High Control (HC) and 2 μM of a known BRM/BRG1 degrader standard treated cells are employed as Low Control (LC).

[2] = biological target: T2, HiBiT-BRM fusion protein in stable HeLa cell line (Homo sapiens, UniProt P51531); experiment: HiBiT-BRM cell-based degradation assay (Nano-Glo HiBiT Lytic Detection, 24 h); set-up: DC50: scale not given here; conditions: HeLa HiBiT-BRM cells; for DC50: read-out: BRM HiBit Degradation IC50; for BRM HiBit Degradation Maximum (%): top dose 30 μM
T2 construct: expressed in transfected cells
Protocol: Procedure: A stable HeLa cell line expressing HiBiT-BRM was generated. On day 0, 5000 cells were seeded in 40 μL of media into each well of 384-well cell culture plates. On day 1, cells were treated with 120 nL DMSO or 120 nL of 3-fold serially DMSO-diluted compounds (10 points in duplicate with 30 μM as final top dose). Subsequently plates were incubated for 24 h in a standard tissue culture incubator and equilibrated at room temperature for 15 minutes. Nano-Glo HiBiT Lytic Detection System (Promega N3050) reagent was freshly prepared and 20 ul was added to each well. Upon addition of this LgBit-containing reagent, the HiBiT and LgBiT proteins associate to form the luminescent NanoBiT luciferase. The plates were shaken for 10 minutes at room temperature and the bioluminescence read using an EnVision plate reader (PerkinElmer).
The degradation % was calculated using the following formula: % degradation=100%−100%×(Lumsample−LumLC)/(LumHC−LumLC). DMSO treated cells are employed as High Control (HC) and 2 μM of a known BRM/BRG1 degrader standard treated cells are employed as Low Control (LC).

T1 sequence (P51532 whole entry, the tested form may be a part): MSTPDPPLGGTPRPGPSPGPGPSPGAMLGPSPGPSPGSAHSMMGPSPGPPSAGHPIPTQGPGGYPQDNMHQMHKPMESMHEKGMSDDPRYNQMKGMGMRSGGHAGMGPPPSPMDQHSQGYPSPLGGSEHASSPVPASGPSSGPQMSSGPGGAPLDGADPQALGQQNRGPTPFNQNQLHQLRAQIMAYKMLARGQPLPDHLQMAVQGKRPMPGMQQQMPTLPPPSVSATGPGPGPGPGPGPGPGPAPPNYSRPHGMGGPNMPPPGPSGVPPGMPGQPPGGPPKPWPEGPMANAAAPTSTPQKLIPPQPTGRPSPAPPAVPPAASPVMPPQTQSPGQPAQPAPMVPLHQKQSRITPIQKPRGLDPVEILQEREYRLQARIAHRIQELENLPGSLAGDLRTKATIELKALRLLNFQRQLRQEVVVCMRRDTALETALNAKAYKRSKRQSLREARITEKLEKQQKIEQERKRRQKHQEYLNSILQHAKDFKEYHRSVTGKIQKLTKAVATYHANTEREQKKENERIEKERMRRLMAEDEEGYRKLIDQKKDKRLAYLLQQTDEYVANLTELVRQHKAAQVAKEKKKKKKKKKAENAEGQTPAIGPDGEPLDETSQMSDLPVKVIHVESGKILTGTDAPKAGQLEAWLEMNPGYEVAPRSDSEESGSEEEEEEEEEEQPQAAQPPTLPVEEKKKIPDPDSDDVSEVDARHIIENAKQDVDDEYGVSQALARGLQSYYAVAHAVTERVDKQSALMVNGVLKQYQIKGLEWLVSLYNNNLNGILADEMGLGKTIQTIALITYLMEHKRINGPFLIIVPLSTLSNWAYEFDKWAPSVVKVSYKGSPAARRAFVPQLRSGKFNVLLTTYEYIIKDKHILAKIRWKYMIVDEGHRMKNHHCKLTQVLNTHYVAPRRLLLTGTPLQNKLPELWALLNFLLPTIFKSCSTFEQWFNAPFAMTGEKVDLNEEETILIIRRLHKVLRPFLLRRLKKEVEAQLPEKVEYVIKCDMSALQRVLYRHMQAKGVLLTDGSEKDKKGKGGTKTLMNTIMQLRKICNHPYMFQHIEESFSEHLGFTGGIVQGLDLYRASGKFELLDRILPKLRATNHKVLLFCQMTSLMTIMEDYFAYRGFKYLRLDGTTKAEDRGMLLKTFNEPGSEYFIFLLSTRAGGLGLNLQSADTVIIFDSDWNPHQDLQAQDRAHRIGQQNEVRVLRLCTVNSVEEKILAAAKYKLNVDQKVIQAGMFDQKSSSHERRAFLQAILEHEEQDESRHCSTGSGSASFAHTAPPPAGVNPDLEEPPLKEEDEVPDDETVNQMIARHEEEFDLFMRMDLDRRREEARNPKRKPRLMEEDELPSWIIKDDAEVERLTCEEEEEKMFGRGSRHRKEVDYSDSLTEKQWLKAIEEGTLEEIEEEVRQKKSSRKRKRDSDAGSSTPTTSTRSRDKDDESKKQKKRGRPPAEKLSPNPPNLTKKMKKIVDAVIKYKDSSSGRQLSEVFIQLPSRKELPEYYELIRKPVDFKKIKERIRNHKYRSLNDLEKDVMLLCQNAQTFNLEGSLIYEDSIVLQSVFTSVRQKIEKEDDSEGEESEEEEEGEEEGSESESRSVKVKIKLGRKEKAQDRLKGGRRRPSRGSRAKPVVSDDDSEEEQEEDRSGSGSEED
T2 sequence (P51531 whole entry, the tested form may be a part): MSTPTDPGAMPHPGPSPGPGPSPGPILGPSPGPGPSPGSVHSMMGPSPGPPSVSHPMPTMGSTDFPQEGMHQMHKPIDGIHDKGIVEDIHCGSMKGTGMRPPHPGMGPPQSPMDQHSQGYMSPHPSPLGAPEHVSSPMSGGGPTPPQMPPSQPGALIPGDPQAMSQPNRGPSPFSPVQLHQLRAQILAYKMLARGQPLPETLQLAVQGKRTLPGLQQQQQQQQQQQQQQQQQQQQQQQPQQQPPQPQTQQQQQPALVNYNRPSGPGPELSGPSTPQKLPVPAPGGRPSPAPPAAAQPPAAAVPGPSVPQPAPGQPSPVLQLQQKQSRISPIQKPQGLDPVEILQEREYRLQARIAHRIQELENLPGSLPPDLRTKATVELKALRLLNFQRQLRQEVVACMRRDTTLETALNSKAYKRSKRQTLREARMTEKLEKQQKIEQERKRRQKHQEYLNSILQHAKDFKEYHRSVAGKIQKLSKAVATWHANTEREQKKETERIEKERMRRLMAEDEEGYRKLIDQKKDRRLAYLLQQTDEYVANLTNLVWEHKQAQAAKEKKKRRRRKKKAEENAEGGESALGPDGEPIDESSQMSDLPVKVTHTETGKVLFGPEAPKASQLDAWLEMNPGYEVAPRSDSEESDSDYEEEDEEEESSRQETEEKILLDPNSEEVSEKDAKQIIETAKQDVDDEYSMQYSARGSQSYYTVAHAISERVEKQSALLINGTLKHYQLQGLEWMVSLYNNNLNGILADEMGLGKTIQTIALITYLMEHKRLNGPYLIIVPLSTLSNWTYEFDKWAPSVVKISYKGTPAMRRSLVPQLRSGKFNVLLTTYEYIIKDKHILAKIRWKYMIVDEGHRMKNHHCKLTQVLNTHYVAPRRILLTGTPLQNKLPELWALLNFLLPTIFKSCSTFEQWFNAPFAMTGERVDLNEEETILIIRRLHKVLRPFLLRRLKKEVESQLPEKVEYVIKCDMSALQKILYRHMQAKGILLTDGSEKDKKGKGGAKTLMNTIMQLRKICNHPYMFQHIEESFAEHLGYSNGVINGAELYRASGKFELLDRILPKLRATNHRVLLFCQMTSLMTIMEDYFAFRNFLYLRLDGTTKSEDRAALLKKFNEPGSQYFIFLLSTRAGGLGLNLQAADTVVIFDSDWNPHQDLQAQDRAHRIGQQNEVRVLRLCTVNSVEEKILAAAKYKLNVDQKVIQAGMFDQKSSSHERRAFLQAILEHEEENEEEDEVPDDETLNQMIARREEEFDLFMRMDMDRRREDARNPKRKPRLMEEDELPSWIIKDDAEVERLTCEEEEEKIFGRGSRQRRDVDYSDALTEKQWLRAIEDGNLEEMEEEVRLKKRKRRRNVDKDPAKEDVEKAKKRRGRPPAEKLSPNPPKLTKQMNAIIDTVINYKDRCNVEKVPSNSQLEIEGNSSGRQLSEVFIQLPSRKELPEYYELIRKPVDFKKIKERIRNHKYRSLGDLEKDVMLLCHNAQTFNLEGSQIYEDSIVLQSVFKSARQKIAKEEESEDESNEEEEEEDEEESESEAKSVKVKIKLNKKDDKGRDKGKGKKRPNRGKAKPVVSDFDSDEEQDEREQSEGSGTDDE

Structure (SMILES)	DC50 [1]	Dmax [1]	DC50 [2]	BRM HiBit Degradation Maximum (%) [2]
Cc1ncsc1-c1ccc([C@H](C)NC(=O)[C@@H]2C[C@@H](O)CN2C(=O)[C@@H](c2cc(N3CCC(N4CC(c5ccc6nnc(-c7ccccc7O)cc6c5)C4)CC3)no2)C(C)C)cc1 [Compound 3, (2S,4R)-4-hydroxy-1-((R)-2-(3-(4-(3-(3-(2-hydroxyphenyl)cinnolin-6-yl)azetidin-1-yl)piperidin-1-yl)isoxazol-5-yl)-3-methylbutanoyl)-N-((S)-1-(4-(4-methylthiazol-5-yl)phenyl)ethyl)pyrrolidine-2-carboxamide]	< 10 nM	> 75%	< 10 nM	A (“A” indicates maximum degradation ≥75%)
Cc1ncsc1-c1ccc([C@H](C)NC(=O)[C@@H]2C[C@@H](O)CN2C(=O)[C@@H](c2cc(-c3cnc(N4CC(c5ccc6nnc(-c7ccccc7O)cc6c5)C4)nc3)no2)C(C)C)cc1 [Compound 4, (2S,4R)-4-hydroxy-1-[(2R)-2-[3-(2-{3-[3-(2-hydroxyphenyl)cinnolin-6-yl]azetidin-1-yl}pyrimidin-5-yl)-1,2-oxazol-5-yl]-3-methylbutanoyl]-N-[(1S)-1-[4-(4-methyl-1,3-thiazol-5-yl)phenyl]ethyl]pyrrolidine-2-carboxamide]	> 10 nM	> 75%	< 10 nM	A (“A” indicates maximum degradation ≥75%)
Cc1ncsc1-c1ccc([C@H](C)NC(=O)[C@@H]2C[C@@H](O)CN2C(=O)[C@H](c2cc(-c3cnc(N4CC(c5ccc6nnc(-c7ccccc7O)cc6c5)C4)nc3)no2)C(C)C)cc1 [Compound 5, (2S,4R)-4-hydroxy-1-[(2S)-2-[3-(2-{3-[3-(2-hydroxyphenyl)cinnolin-6-yl]azetidin-1-yl}pyrimidin-5-yl)-1,2-oxazol-5-yl]-3-methylbutanoyl]-N-[(1S)-1-[4-(4-methyl-1,3-thiazol-5-yl)phenyl]ethyl]pyrrolidine-2-carboxamide]	–	< 50%	> 100 nM	B (“B” indicates maximum degradation ≥50%)
Cc1ncsc1-c1ccc([C@H](C)NC(=O)[C@@H]2C[C@@H](O)CN2C(=O)[C@@H](c2cc(OCC(=O)N3CC(c4ccc5nnc(-c6ccccc6O)cc5c4)C3)no2)C(C)C)cc1 [Compound 6, (2S,4R)-4-hydroxy-1-[(2R)-2-[3-(2-{3-[3-(2-hydroxyphenyl)cinnolin-6-yl]azetidin-1-yl}-2-oxoethoxy)-1,2-oxazol-5-yl]-3-methylbutanoyl]-N-[(1S)-1-[4-(4-methyl-1,3-thiazol-5-yl)phenyl]ethyl]pyrrolidine-2-carboxamide]	–	< 50%	> 100 nM	B (“B” indicates maximum degradation ≥50%)
Cc1ncsc1-c1ccc([C@H](C)NC(=O)[C@@H]2C[C@@H](O)CN2C(=O)[C@@H](c2cc(N3CCC(C(=O)N4CC(c5ccc6nnc(-c7ccccc7O)cc6c5)C4)CC3)no2)C(C)C)cc1 [Compound 7, (2S,4R)-4-hydroxy-1-((R)-2-(3-(4-(3-(3-(2-hydroxyphenyl)cinnolin-6-yl)azetidine-1-carbonyl)piperidin-1-yl)isoxazol-5-yl)-3-methylbutanoyl)-N-((S)-1-(4-(4-methylthiazol-5-yl)phenyl)ethyl)pyrrolidine-2-carboxamide]	> 100 nM	> 50%	> 10 nM	A (“A” indicates maximum degradation ≥75%)
Cc1ncsc1-c1ccc([C@H](C)NC(=O)[C@@H]2C[C@@H](O)CN2C(=O)[C@@H](c2cc(OCCN3CC(c4ccc5cc(-c6ccccc6O)nnc5c4)C3)no2)C(C)C)cc1 [Compound 8, (2S,4R)-4-hydroxy-1-[(2R)-2-[3-(2-{3-[3-(2-hydroxyphenyl)cinnolin-7-yl]azetidin-1-yl}ethoxy)-1,2-oxazol-5-yl]-3-methylbutanoyl]-N-[(1S)-1-[4-(4-methyl-1,3-thiazol-5-yl)phenyl]ethyl]pyrrolidine-2-carboxamide]	–	> 50%	< 10 nM	A (“A” indicates maximum degradation ≥75%)
Cc1ncsc1-c1ccc([C@H](C)NC(=O)[C@@H]2C[C@@H](O)CN2C(=O)[C@@H](c2cc(N3CCC(CN4CC(c5ccc6cc(-c7ccccc7O)nnc6c5)C4)CC3)no2)C(C)C)cc1 [Compound 9, (2S,4R)-4-hydroxy-1-((R)-2-(3-(4-((3-(3-(2-hydroxyphenyl)cinnolin-7-yl)azetidin-1-yl)methyl)piperidin-1-yl)isoxazol-5-yl)-3-methylbutanoyl)-N-((S)-1-(4-(4-methylthiazol-5-yl)phenyl)ethyl)pyrrolidine-2-carboxamide]	–	< 50%	> 10 nM	A (“A” indicates maximum degradation ≥75%)
Cc1ncsc1-c1ccc([C@H](C)NC(=O)[C@@H]2C[C@@H](O)CN2C(=O)[C@@H](c2cc(N3CCC(N4CC(c5ccc6cc(-c7ccccc7O)nnc6c5)C4)CC3)no2)C(C)C)cc1 [Compound 10, (2S,4R)-4-hydroxy-1-((R)-2-(3-(4-(3-(3-(2-hydroxyphenyl)cinnolin-7-yl)azetidin-1-yl)piperidin-1-yl)isoxazol-5-yl)-3-methylbutanoyl)-N-((S)-1-(4-(4-methylthiazol-5-yl)phenyl)ethyl)pyrrolidine-2-carboxamide]	–	< 50%	> 10 nM	A (“A” indicates maximum degradation ≥75%)
Cc1ncsc1-c1ccc([C@H](C)NC(=O)[C@@H]2C[C@@H](O)CN2C(=O)[C@@H](c2cc(-c3cnc(N4CC(c5ccc6cc(-c7ccccc7O)nnc6c5)C4)nc3)no2)C(C)C)cc1 [Compound 11, (2S,4R)-4-hydroxy-1-[(2R)-2-[3-(2-{3-[3-(2-hydroxyphenyl)cinnolin-7-yl]azetidin-1-yl}pyrimidin-5-yl)-1,2-oxazol-5-yl]-3-methylbutanoyl]-N-[(1S)-1-[4-(4-methyl-1,3-thiazol-5-yl)phenyl]ethyl]pyrrolidine-2-carboxamide]	–	< 50%	< 10 nM	A (“A” indicates maximum degradation ≥75%)
Cc1ncsc1-c1ccc([C@H](C)NC(=O)[C@@H]2C[C@@H](O)CN2C(=O)[C@H](c2cc(-c3cnc(N4CC(c5ccc6cc(-c7ccccc7O)nnc6c5)C4)nc3)no2)C(C)C)cc1 [Compound 12, (2S,4R)-4-hydroxy-1-[(2S)-2-[3-(2-{3-[3-(2-hydroxyphenyl)cinnolin-7-yl]azetidin-1-yl}pyrimidin-5-yl)-1,2-oxazol-5-yl]-3-methylbutanoyl]-N-[(1S)-1-[4-(4-methyl-1,3-thiazol-5-yl)phenyl]ethyl]pyrrolidine-2-carboxamide]	–	< 50%	> 100 nM	C (“C” indicates maximum degradation <50%)
Cc1ncsc1-c1ccc([C@H](C)NC(=O)[C@@H]2C[C@@H](O)CN2C(=O)[C@@H](c2cc(-c3cnc(N4CCN(c5ccc6nnc(-c7ccccc7O)cc6c5)CC4)nc3)no2)C(C)C)cc1 [Compound 13, (2S,4R)-4-hydroxy-1-((R)-2-(3-(2-(4-(3-(2-hydroxyphenyl)cinnolin-6-yl)piperazin-1-yl)pyrimidin-5-yl)isoxazol-5-yl)-3-methylbutanoyl)-N—((S)-1-(4-(4-methylthiazol-5-yl)phenyl)ethyl)pyrrolidine-2-carboxamide]	< 10 nM	> 75%	< 10 nM	A (“A” indicates maximum degradation ≥75%)
Cc1ncsc1-c1ccc([C@H](C)NC(=O)[C@@H]2C[C@@H](O)CN2C(=O)[C@H](c2cc(-c3cnc(N4CCN(c5ccc6nnc(-c7ccccc7O)cc6c5)CC4)nc3)no2)C(C)C)cc1 [Compound 14, (2S,4R)-4-hydroxy-1-((S)-2-(3-(2-(4-(3-(2-hydroxyphenyl)cinnolin-6-yl)piperazin-1-yl)pyrimidin-5-yl)isoxazol-5-yl)-3-methylbutanoyl)-N—((S)-1-(4-(4-methylthiazol-5-yl)phenyl)ethyl)pyrrolidine-2-carboxamide]	> 100 nM	> 75%	> 10 nM	A (“A” indicates maximum degradation ≥75%)
Cc1ncsc1-c1ccc([C@H](C)NC(=O)[C@@H]2C[C@@H](O)CN2C(=O)[C@H](c2cc(-c3cnc(N4CC5(CC(c6ccc7cc(-c8ccccc8O)nnc7c6)C5)C4)nc3)no2)C(C)C)cc1 [Compound 17]	–	< 50%	> 10 nM	A (“A” indicates maximum degradation ≥75%)
